Test results from EP0461815A1, “Anti-HBV pyrimidine nucleoside” (THE WELLCOME FOUNDATION LIMITED, priority 1990, dated 1991).
Like-named read-outs stand apart in the source and are kept apart here.

Tests used:
Hepatitis B Virus (HBV) = test: Anti-HBV activity in HBV producer cell line HepG2 2.2.15: reduction of extracellular virion DNA and intracellular replicative intermediates; type: cell-based
Method: The human HBV producer cell line of HepG2, 2.2.15, described and characterized by Sells et al., PNAS 84:1005, 1987 and J. Virol. […] This cell line was utilized in vitro to identify compounds with anti-HBV activity.
Monolayer cultures were treated with 1-100µM of the active compound 1-(β-D-arabinofuranosyl)-5-prop-1-ynyluracil, for ten days. Supernatant media containing extracellular virion DNA (Dane particles) were harvested on day ten, treated with proteinase K (1 mg/mL) and sodium dodecyl sulfate (1%), and incubated at 50°C for one hour. DNA was extracted with equal volumes of phenol followed by chloroform and then precipitated by ammonium acetate and propanol. The DNA precipitate was dissolved and collected on nitrocellulose using the procedure of Schleicher and Schuell (S & S, 10 Optical Ave., Keene, NH 03431, Publication #700, 1987), and treated as described by Southern, J. Mol. Biol. 98:503, 1975. Cells were harvested, and the intracellular DNA. was obtained after cell lysis with guanidine isothiocyanate. The intracellular DNA was handled in the same manner as the extracellular DNA. After precipitation by ammonium acetate and propanol, the intracellular DNA precipitate was dissolved, cut by restriction endonuclease, Hind III, applied to agarose gel and then treated as described by Southern to determine the quantity of replicative intermediate forms. The antiviral effect of the drug was determined by measuring a reduction of the amount of Dane particles extruded into the culture medium (extracellular DNA) and a similar decrease in tie intracellular replicative intermediates (intracellular replicative form).

[1] = Cell toxicity, cell growth inhibition assay (MTT uptake); type: cell-based; settings: monkey, Vero cells, 50% inhibition of cell viability at 96 hours, read-out: cell toxicity (CCID₅₀)
Method: Cell toxicity is assessed in a cell growth inhibition assay. Subconfluent cultures of Vero cells grown on 96-well microtiter dishes are exposed to different dilutions of drug, and cell viability determined daily on replicate cultures using uptake of a tetrazolium dye (MTT). The concentration requried for a 50% inhibition of cell viability at 96 hours is termed CCID₅₀.

[2] = HepG2 2.2.15, 240 h, Expt. 5, HepG2 2.2.15 cells, ten days, read-out: Percent (Reduction) Inhibition of Hepatitus B Virus DNA in Extracellular Media
[3] = HepG2 2.2.15, 240 h, Expt. 6, HepG2 2.2.15 cells, ten days, read-out: Percent (Reduction) Inhibition of Hepatitus B Virus DNA in Extracellular Media

With `CC#Cc1cn([C@@H]2O[C@H](CO)[C@@H](O)[C@@H]2O)c(=O)[nH]c1=O` [1-(β-D-Arabinofuranosyl)-5-prop-1-ynyluracil] the “Percent (Reduction) Inhibition of Hepatitus B Virus DNA in Extracellular Media” value (Hepatitis B Virus (HBV); Expt. 5, 11μM, HepG2 2.2.15 cells, ten days) was “N.I”, the “Percent (Reduction) Inhibition of Hepatitus B Virus DNA in Extracellular Media” value (Hepatitis B Virus (HBV); Expt. 6, 37μM, HepG2 2.2.15 cells, ten days) was “N.I” and the inhibition at 33 µM (Hepatitis B Virus (HBV); [2]) was 87.4%. For the same compound, the inhibition at 37 µM (Hepatitis B Virus (HBV); HepG2 2.2.15, 240 h, Expt. 5, 37μM, HepG2 2.2.15 cells, ten days, read-out: Percent (Reduction) Inhibition of Hepatitus B Virus DNA in Extracellular Media) was 55.3%, the inhibition at 100 µM (Hepatitis B Virus (HBV); [2]) was 94.4% and the inhibition at 11 µM (Hepatitis B Virus (HBV); HepG2 2.2.15, 240 h, Expt. 6, 11μM, HepG2 2.2.15 cells, ten days, read-out: Percent (Reduction) Inhibition of Hepatitus B Virus DNA in Extracellular Media) was 71.5%. For the same compound, the inhibition at 33 µM (Hepatitis B Virus (HBV); [3]) was 89.1%, the inhibition at 100 µM (Hepatitis B Virus (HBV); [3]) was 98.5% and the inhibition at 100 µM (Hepatitis B Virus (HBV); Hepatitis B virus, HepG2 2.2.15, 240 h, Expt. 5, value in parentheses, read-out: % reduction in intracellular hepatitis B virus DNA replicative form) was 88%. For the same compound, the inhibition at 100 µM (Hepatitis B Virus (HBV); Hepatitis B virus, HepG2 2.2.15, 240 h, Expt. 6, value in parentheses, read-out: % reduction in intracellular hepatitis B virus DNA replicative form) was 95.3%, the inhibition at 1 µM (Hepatitis B Virus (HBV); Hepatitis B virus, HepG2 2.2.15, Expt.7, 1μM, read-out: Percent Inhibition of Hepatitis B Specific Intracellular Replicative Form (RF) DNA) was 35% and the inhibition at 10 µM (Hepatitis B Virus (HBV); Hepatitis B virus, HepG2 2.2.15, Expt.7, 10μM, read-out: Percent Inhibition of Hepatitis B Specific Intracellular Replicative Form (RF) DNA) was 33%. It also gave an inhibition at 100 µM (Hepatitis B Virus (HBV); Hepatitis B virus, HepG2 2.2.15, Expt.7, read-out: Percent Inhibition of Hepatitis B Specific Intracellular Replicative Form (RF) DNA) of 42% and a CC50 at 96 h [1] greater than 500 µM.
